In PMC4468202, “Improved Visualization and Specific Binding for Metabotropic Glutamate Receptor Subtype 1 (mGluR1) Using [^11C]ITMM with Ultra-High Specific Activity in Small-Animal PET” (PLoS ONE, 2015):
Several values for one entry are separate records, joined by “and”; a condition that tells them apart may be missing. Equal values may be shown once.

Biological target: mGluR1 (Rattus norvegicus, UniProt P23385)
Experiment: Two-tissue compartment model (2TCM) kinetic analysis of PET data
Assay type: in vivo
Parameters: from tissue; host or cells: living SD rat brain (in vivo PET)
Experimental: Kinetic analysis of [^11C]ITMM was performed using the two-tissue compartment model (2TCM). The compartments correspond to the radioactivity concentrations of unchanged radioprobe in the plasma (C P), free and non-specifically bound radioprobe (C 1), and radioprobe specifically bound to receptors (C 2). The rate constants K 1 and k 2 correspond to the influx and outflux rates of the radioprobe across the blood-brain barrier. The rate constants k 3 and k 4 correspond to the rates of radioprobe transfer between the C 1 and C 2 compartments. The blood volume fraction (vB) in the rat brain was fixed at 2% [28]. The four rate constants of the 2TCM were obtained by a nonlinear least squares fitting technique, using PMOD version 3.4 (PMOD Technologies).
The distribution of [^11C]ITMM in free or tissue compartments was described using the concept of free ligand distribution volume (DV f) or V T, which was defined by the following equations: DVf=K1/k2 (1) VT=DVf(1+k3/k4) (2)
The nondisplacable binding potential (BP ND) is defined using the index of specific bindings of the radioprobe, meaning the receptor density (B max) to binding affinity (K D) ratio, which corresponds with the ratio of k 3 to k 4 in the 2TCM [26]. The BP ND is defined as follows: BPND=fND⋅Bmax/KD=k3/k4 (3) Here, f ND represents the tissue-free fraction of radioprobe in the nondisplacable compartment. Although the fraction of radioprobe that is unbound to plasma proteins was not measured in the present study, the value of f ND is close to 1.0 [29].

[1] = cingulate cortex, conventional SA
[2] = cingulate cortex, ultra-high SA
[3] = substantia nigra, conventional SA
[4] = substantia nigra, ultra-high SA

Sequence of mGluR1 (P23385 19-1199): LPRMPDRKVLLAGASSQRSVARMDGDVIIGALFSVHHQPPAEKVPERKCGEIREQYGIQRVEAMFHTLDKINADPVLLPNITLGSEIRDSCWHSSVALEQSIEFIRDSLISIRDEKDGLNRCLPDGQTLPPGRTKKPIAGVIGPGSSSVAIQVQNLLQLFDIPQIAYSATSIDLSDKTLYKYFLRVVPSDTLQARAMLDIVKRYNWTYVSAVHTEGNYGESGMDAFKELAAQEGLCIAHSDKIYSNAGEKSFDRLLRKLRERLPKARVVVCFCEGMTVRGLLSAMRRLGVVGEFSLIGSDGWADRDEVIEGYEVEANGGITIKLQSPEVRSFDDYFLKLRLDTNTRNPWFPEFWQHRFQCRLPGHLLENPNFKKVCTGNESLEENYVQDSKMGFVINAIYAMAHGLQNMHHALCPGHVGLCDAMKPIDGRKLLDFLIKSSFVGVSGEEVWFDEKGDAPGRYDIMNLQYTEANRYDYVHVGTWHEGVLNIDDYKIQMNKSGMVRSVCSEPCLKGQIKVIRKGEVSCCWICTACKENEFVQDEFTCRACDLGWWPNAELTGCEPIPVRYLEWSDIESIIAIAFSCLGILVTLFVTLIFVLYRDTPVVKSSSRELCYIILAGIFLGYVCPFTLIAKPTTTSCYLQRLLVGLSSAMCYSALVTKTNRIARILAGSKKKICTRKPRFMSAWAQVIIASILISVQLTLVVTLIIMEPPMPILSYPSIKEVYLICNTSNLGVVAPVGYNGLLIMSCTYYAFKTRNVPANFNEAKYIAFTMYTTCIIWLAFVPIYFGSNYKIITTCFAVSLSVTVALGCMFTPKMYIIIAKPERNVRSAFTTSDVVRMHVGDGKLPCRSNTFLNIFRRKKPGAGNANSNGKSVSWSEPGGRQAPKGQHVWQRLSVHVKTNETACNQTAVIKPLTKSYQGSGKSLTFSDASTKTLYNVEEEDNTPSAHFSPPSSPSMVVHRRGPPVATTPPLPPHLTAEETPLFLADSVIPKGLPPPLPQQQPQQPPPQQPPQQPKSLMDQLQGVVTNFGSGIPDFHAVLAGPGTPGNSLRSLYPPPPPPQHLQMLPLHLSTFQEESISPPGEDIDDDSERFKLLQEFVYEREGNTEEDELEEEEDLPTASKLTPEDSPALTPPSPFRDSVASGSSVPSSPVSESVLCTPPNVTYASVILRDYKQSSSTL

## CC(C)Nc1cc(-c2csc(N(C)C(=O)c3ccc(O[11CH3])cc3)n2)ncn1 [[^11C]ITMM, N-[4-[6-(isopropylamino)pyrimidin-4-yl]-1,3-thiazol-2-yl]-4-[^11C]methoxy-N-methyl-benzamide]
cerebellum, conventional SA
  BP ND (k 3/k 4): 33.2 ± 1.4
  DV f (K 1/k 2): 0.429 ± 0.020
  K 1: 0.344 ± 0.010 mL/cm^3/min
  V T: 14.56 ± 0.50 mL/cm^3
  k 2: 0.811 ± 0.045 min⁻¹
  k 3: 0.619 ± 0.035 min⁻¹
  k 4: 0.019 ± 0.001 min⁻¹
cerebellum, ultra-high SA
  BP ND (k 3/k 4): 48.9 ± 2.6
  DV f (K 1/k 2): 0.336 ± 0.020
  K 1: 0.366 ± 0.019 mL/cm^3/min
  V T: 16.69 ± 0.92 mL/cm^3
  k 2: 1.112 ± 0.098 min⁻¹
  k 3: 0.799 ± 0.035 min⁻¹
  k 4: 0.016 ± 0.000 min⁻¹
[1]
  BP ND (k 3/k 4): 21.7 ± 1.2
  DV f (K 1/k 2): 0.302 ± 0.021
  K 1: 0.312 ± 0.008 mL/cm^3/min
  V T: 6.76 ± 0.25 mL/cm^3
  k 2: 1.062 ± 0.086 min⁻¹
  k 3: 0.643 ± 0.053 min⁻¹
  k 4: 0.030 ± 0.001 min⁻¹
[2]
  BP ND (k 3/k 4): 32.8 ± 1.9
  DV f (K 1/k 2): 0.257 ± 0.008
  K 1: 0.339 ± 0.019 mL/cm^3/min
  V T: 8.66 ± 0.45 mL/cm^3
  k 2: 1.317 ± 0.054 min⁻¹
  k 3: 0.740 ± 0.036 min⁻¹
  k 4: 0.023 ± 0.001 min⁻¹
hippocampus, conventional SA
  BP ND (k 3/k 4): 24.8 ± 1.8
  DV f (K 1/k 2): 0.292 ± 0.011
  K 1: 0.303 ± 0.015 mL/cm^3/min
  V T: 7.44 ± 0.27 mL/cm^3
  k 2: 1.052 ± 0.082 min⁻¹
  k 3: 0.644 ± 0.051 min⁻¹
  k 4: 0.026 ± 0.001 min⁻¹
hippocampus, ultra-high SA
  BP ND (k 3/k 4): 38.2 ± 1.5
  DV f (K 1/k 2): 0.228 ± 0.008
  K 1: 0.320 ± 0.020 mL/cm^3/min
  V T: 8.93 ± 0.47 mL/cm^3
  k 2: 1.415 ± 0.107 min⁻¹
  k 3: 0.784 ± 0.027 min⁻¹
  k 4: 0.021 ± 0.000 min⁻¹
pons, conventional SA
  BP ND (k 3/k 4): 8.3 ± 0.5
  DV f (K 1/k 2): 0.224 ± 0.011
  K 1: 0.271 ± 0.015 mL/cm^3/min
  V T: 2.06 ± 0.06 mL/cm^3
  k 2: 1.237 ± 0.122 min⁻¹
  k 3: 0.256 ± 0.022 min⁻¹
  k 4: 0.031 ± 0.001 min⁻¹
pons, ultra-high SA
  BP ND (k 3/k 4): 9.8 ± 0.5
  DV f (K 1/k 2): 0.221 ± 0.015
  K 1: 0.244 ± 0.004 mL/cm^3/min
  V T: 2.39 ± 0.23 mL/cm^3
  k 2: 1.131 ± 0.084 min⁻¹
  k 3: 0.253 ± 0.011 min⁻¹
  k 4: 0.026 ± 0.001 min⁻¹
striatum, conventional SA
  BP ND (k 3/k 4): 20.0 ± 1.1
  DV f (K 1/k 2): 0.367 ± 0.015
  K 1: 0.278 ± 0.014 mL/cm^3/min
  V T: 7.7 mL/cm^3 and 7.66 ± 0.28 mL/cm^3
  k 2: 0.769 ± 0.061 min⁻¹
  k 3: 0.612 ± 0.036 min⁻¹
  k 4: 0.031 ± 0.001 min⁻¹
striatum, ultra-high SA
  BP ND (k 3/k 4): 30.6 ± 1.8
  DV f (K 1/k 2): 0.311 ± 0.021
  K 1: 0.294 ± 0.014 mL/cm^3/min
  V T: 9.7 mL/cm^3 and 9.66 ± 0.41 mL/cm^3
  k 2: 0.972 ± 0.083 min⁻¹
  k 3: 0.722 ± 0.043 min⁻¹
  k 4: 0.024 ± 0.001 min⁻¹
[3]
  BP ND (k 3/k 4): 16.6 ± 1.6
  DV f (K 1/k 2): 0.378 ± 0.030
  K 1: 0.298 ± 0.021 mL/cm^3/min
  V T: 6.4 mL/cm^3 and 6.44 ± 0.22 mL/cm^3
  k 2: 0.840 ± 0.128 min⁻¹
  k 3: 0.470 ± 0.031 min⁻¹
  k 4: 0.029 ± 0.001 min⁻¹
[4]
  BP ND (k 3/k 4): 26.1 ± 2.0
  DV f (K 1/k 2): 0.321 ± 0.023
  K 1: 0.292 ± 0.012 mL/cm^3/min
  V T: 8.5 mL/cm^3 and 8.53 ± 0.47 mL/cm^3
  k 2: 0.933 ± 0.075 min⁻¹
  k 3: 0.602 ± 0.036 min⁻¹
  k 4: 0.023 ± 0.001 min⁻¹
thalamus, conventional SA
  BP ND (k 3/k 4): 25.5 ± 1.2
  DV f (K 1/k 2): 0.347 ± 0.018
  K 1: 0.303 ± 0.012 mL/cm^3/min
  V T: 9.1 mL/cm^3 and 9.12 ± 0.37 mL/cm^3
  k 2: 0.886 ± 0.064 min⁻¹
  k 3: 0.669 ± 0.033 min⁻¹
  k 4: 0.026 ± 0.001 min⁻¹
thalamus, ultra-high SA
  BP ND (k 3/k 4): 38.5 ± 1.1
  DV f (K 1/k 2): 0.284 ± 0.018
  K 1: 0.313 ± 0.016 mL/cm^3/min
  V T: 11.2 mL/cm^3 and 11.15 ± 0.51 mL/cm^3
  k 2: 1.125 ± 0.088 min⁻¹
  k 3: 0.817 ± 0.025 min⁻¹
  k 4: 0.021 ± 0.000 min⁻¹
